Consider three molecules from ChEMBL document CHEMBL1146410, “Bioactive Terpenoids from Octocorallia. 4. Three New Cembrane-Type Diterpenoids from the Soft Coral Lobophytum schoedei” (J Nat Prod, 1997).

Holding throughout (type): organism-based
A short description of data set [1]: Toxicity in Artemia salina larvae at 30 ppm. To be noted: in vivo, read-out: Activity.
Data set [2] has as its system Oryzias latipes. The data set can be described thus: Ichthyotoxicity in Oryzias latipes. To be noted: in vivo.
For data set [3], the system named is Oryzias latipes. The data set can be described thus: Toxicity in Oryzias latipes. To be noted: in vivo.

For the molecule `CC(=O)OCC1=C\CC/C(C)=C/CC[C@@]2(C)CC[C@@](C(C)C)(\C=C\1)O2` [LOBOPHYNIN A], in data set [1], the mortality at 30 ppm worked out at 20%.

As for `CC(=O)OCC1=C2CC/C(C)=C/CC[C@@]3(C)O[C@@H]3CC/C(C)=C/[C@H]2OC1` [LOBOPHYNIN B], the mortality at 30 ppm in data set [1] turned out to be 25%. As a reminder, the LC50 is the concentration that kills 50% of the test population. Low readings indicate a more lethal substance, high ones a less lethal substance. Take `COC(=O)/C1=C/CC/C(C)=C/[C@@H]2OCC(C)=C2CC[C@@]2(C)O[C@@H]2CC1` [LOBOPHYNIN C]: in the data set with Oryzias latipes [2], the LC100 was 30 ppm. This molecule also gave a median lethal concentration (LC50) with Oryzias latipes [3] of 22.5 ppm.
